Where two headings read alike, the source gives them in different places.
Tests used:
β2AR [1] = conditions: cited from earlier work
β2AR [2] = conditions: for log bias factor (mGs/Arr2): ΔΔlog(Emax/EC50) relative to reference formoterol, from peak responses
Experimental: To determine the relative effectiveness of the compounds to activate the different signaling pathways, the difference between the log(E max/EC50) values was calculated.
Using the estimates of agonist activity Δlog(E max/EC50) for the test and reference agonists, pathway log bias was calculated as follows: 3 ΔΔlog(Emax/EC50)=Δlog(Emax/EC50)P1−Δlog(Emax/EC50)P2 where pathway 1 (P1) is mGs-dependent recruitment and pathway 2 (P2) is β-arrestin2 recruitment. Bias factors were calculated by taking the antilog of the ΔΔlog(E max/EC50).
Error on the pathway bias was calculated using the following formula: 4 SEMΔΔlog(Emax/EC50)=SEMΔlog(Emax/EC50)P12+SEMΔlog(Emax/EC50)P22

β2AR [3] = biological target: T1, β2AR (Homo sapiens, UniProt P07550); assay: nanoBRET β-arrestin2 recruitment assay in T-REx-293-β2AR-nLuc cells; type: cell-based; conditions: for EC50: mean ± SEM
Target sequence in this assay (P07550 whole entry): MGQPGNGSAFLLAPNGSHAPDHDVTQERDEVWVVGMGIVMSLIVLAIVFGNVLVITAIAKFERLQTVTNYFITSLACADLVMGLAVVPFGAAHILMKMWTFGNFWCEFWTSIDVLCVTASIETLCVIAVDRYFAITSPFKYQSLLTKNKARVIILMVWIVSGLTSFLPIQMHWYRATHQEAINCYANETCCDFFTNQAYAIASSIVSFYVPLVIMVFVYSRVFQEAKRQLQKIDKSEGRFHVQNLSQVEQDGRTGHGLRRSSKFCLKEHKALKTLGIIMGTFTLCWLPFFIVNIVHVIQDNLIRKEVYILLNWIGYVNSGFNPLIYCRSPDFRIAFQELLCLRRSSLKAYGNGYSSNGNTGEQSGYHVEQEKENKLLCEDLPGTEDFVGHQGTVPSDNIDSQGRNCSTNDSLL
Target sequence in this assay (P32121 whole entry partner): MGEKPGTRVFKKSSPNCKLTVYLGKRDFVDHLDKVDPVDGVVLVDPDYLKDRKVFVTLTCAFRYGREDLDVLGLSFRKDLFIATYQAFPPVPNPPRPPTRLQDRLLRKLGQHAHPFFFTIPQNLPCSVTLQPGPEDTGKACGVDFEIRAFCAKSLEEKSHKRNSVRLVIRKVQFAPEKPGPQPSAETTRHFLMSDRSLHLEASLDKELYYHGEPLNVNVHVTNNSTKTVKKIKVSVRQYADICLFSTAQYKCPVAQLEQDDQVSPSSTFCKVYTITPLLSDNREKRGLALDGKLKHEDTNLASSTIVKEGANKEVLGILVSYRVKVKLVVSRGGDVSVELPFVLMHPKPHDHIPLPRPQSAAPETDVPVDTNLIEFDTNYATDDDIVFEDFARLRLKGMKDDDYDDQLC

β2AR [4] = biological target: T1, β2AR; assay: nanoBRET mGs protein recruitment assay in T-REx-293-β2AR-nLuc cells; type: cell-based; conditions: for EC50: mean ± SEM
Target sequence in this assay (P07550 whole entry): as the sequence (P07550 whole entry) above

[5] = ΔΔlog(Emax/EC50) relative to formoterol, AUC-derived
[6] = read-out: β-arrestin2 Emax at room temperature
[7] = read-out: β-arrestin2 Emax derived from AUC analysis
[8] = read-out: mGs Emax at room temperature
[9] = read-out: mGs Emax derived from AUC analysis

Structure (SMILES)	Log Bias Factor (mGs/Arr2) from AUC analysis (β2AR [2]; [5])	log bias factor (mGs/Arr2) (β2AR [2])	Emax (β2AR [3]; [6]) [%]	Emax (β2AR [4]; read-out: mGs E max) [%]	Emax (β2AR [4]; [8]) [%]	Emax (β2AR [4]; [9]) [%]	further results
C=CCc1ccccc1OCC(O)CNC(C)C (stereo not shown) [Alprenolol]	–	–	–	–	–	–	Ki (β2AR [1]): 0.912 nM
CC(Cc1ccc(O)cc1)NCC(O)c1cc(O)cc(O)c1 (stereo not shown) [Fenoterol, fenoterol]	0.37 ± 0.05	0.32 ± 0.11	83.8 ± 7.1	77 ± 0.4	73.9 ± 2.1	76.7 ± 0.8	Emax (β2AR [3]; read-out: β-arrestin2 E max): 85 ± 2.5%; Emax (β2AR [3]; [7]): 93.6 ± 8.1%
COc1ccc(CC(C)NCC(O)c2ccc(O)c(NC=O)c2)cc1 (stereo not shown) [Formoterol]	–	0 ± 0.10	–	–	–	–	–
CCC(NC(C)C)C(O)c1ccc(O)c(O)c1 (stereo not shown) [Isoetharine]	0.79 ± 0.06	0.59 ± 0.13	116 ± 1.7	97.8 ± 1.4	101 ± 2.8	93.9 ± 1.7	Ki (β2AR [1]): 1580 nM; EC50 (β2AR [3]; AUC analysis, 37 °C, read-out: β-arrestin2 pEC50 derived from AUC analysis (converted)): 224 nM; EC50 (β2AR [3]; peak response, 37 °C, read-out: β-arrestin2 pEC50 (converted)): 417 nM; Emax (β2AR [3]; read-out: β-arrestin2 E max): 112 ± 5.9%; Emax (β2AR [3]; [7]): 103 ± 4.37%; EC50 (β2AR [3]; room temperature, 3 observations, read-out: β-arrestin2 pEC50 at room temperature (converted)): 209 nM; EC50 (β2AR [4]; AUC analysis, 37 °C, read-out: mGs pEC50 derived from AUC analysis (converted)): 38 nM; EC50 (β2AR [4]; peak response at 30 min, 37 °C, read-out: mGs pEC50 (converted)): 61.7 nM; EC50 (β2AR [4]; room temperature, 3 observations, read-out: mGs pEC50 at room temperature (converted)): 13.5 nM
CC(C)NCC(O)c1ccc(O)c(O)c1 (stereo not shown) [Isoprenaline, isoprenaline]	–	0.48 ± 0.14	–	–	–	–	Log Bias Factor (mGs/Arr2) from AUC analysis (β2AR [2]): 0.51 ± 0.07
CC(C)(C)NCC(O)c1ccc(O)c(CO)c1 (stereo not shown) [Salbutamol]	1.65 ± 0.06	1.42 ± 0.19	–	–	–	–	–
OCc1cc(C(O)CNCCCCCCOCCCCc2ccccc2)ccc1O (stereo not shown) [Salmeterol]	–	0.53 ± 0.15	–	–	–	–	–
CC(C)(C)NCC(O)c1ccccc1Cl (stereo not shown) [Tulobuterol]	–	–	8.8 ± 1	33.6 ± 0.6	41.9 ± 1.4	32.8 ± 0.4	–
